# Patent US20080009418A1, “Selective Inhibitors” (Alchemia LTD., priority 2004, published 2008)
# Tests used:
# Conditions in all cases: compound at 10 μM
# Human opioid (ORL1) = molecular target: T1, Human opioid (ORL1) (Homo sapiens, UniProt P41146); assay: Radioligand binding, human opioid ORL1 membranes, FlashPlate, [125I]-Nociceptin
# T1 construct: purchased Perkin Elmer Biosignal
# Summary of the method: (§1)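 Cloned human receptor membranes were coated onto FlashPlate wells and incubated with radioligand and compound (added from a 0.5 mM DMSO daughter plate) for 1 hour at room temperature in the dark. Scintillation counting gave percent inhibition, with DMSO defining total and reference ligand defining non-specific binding.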
# Human Melanocortin (MC3) = molecular target: T2, Human Melanocortin (MC3) (Homo sapiens, UniProt P41968); assay: Radioligand binding, human melanocortin MC3 membranes, FlashPlate, [125I]-NDP-αMSH
# T2 construct: purchased Perkin Elmer Biosignal
# T2 sequence (P41968 whole entry): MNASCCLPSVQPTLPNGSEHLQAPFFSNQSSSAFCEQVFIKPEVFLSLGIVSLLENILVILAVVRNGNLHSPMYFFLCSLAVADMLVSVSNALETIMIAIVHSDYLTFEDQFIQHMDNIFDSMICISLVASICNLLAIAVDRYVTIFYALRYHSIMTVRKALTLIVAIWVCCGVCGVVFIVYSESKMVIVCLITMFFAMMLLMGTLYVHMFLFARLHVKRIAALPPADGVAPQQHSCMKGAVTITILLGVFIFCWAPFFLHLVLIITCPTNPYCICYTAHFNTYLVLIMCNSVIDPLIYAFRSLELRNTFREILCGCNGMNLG
# Summary of the method: as §1
# Mouse urotensin (mUR2) = molecular target: T3, Mouse urotensin (mUR2) (Mus musculus, UniProt Q8VIH9); assay: Radioligand binding, mouse urotensin mUR2 membranes, FlashPlate, [125I]-Urotensin II
# T3 construct: purchased Perkin Elmer Biosignal
# T3 sequence (Q8VIH9 1-385): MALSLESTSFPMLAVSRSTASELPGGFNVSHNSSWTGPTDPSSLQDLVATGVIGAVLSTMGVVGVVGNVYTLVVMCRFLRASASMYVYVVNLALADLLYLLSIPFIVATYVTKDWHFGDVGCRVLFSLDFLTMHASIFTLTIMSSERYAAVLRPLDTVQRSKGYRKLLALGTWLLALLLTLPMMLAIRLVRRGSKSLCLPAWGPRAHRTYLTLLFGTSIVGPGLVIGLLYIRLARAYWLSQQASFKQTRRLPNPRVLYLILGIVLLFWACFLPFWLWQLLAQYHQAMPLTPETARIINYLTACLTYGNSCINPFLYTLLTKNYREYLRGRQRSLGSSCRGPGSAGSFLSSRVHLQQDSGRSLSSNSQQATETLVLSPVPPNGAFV
# Summary of the method: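 Cloned mouse urotensin (mUR2) receptor membranes from Perkin Elmer Biosignal were immobilized in FlashPlate microplates using a proprietary coating. Each well got 19.5 μl buffer, then 0.5 μl of DMSO, reference ligand, or compound. Adding 5 μl of [125I]-Urotensin II, diluted to 5× final concentration in binding buffer, started binding. Plates were sealed with TopSeal-A and incubated 1 hour at room temperature in the dark. Wells were counted for 30 seconds each on a TopCount after a 60-second delay, and percentage inhibition was calculated.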
# Human neurokinin (NK1) = molecular target: T4, Human neurokinin (NK1) (Homo sapiens, UniProt P25103); assay: Radioligand binding, human neurokinin NK1 membranes, filtration, [125I]-Substance P
# T4 construct: purchased Perkin Elmer Biosignal
# T4 sequence (P25103 whole entry): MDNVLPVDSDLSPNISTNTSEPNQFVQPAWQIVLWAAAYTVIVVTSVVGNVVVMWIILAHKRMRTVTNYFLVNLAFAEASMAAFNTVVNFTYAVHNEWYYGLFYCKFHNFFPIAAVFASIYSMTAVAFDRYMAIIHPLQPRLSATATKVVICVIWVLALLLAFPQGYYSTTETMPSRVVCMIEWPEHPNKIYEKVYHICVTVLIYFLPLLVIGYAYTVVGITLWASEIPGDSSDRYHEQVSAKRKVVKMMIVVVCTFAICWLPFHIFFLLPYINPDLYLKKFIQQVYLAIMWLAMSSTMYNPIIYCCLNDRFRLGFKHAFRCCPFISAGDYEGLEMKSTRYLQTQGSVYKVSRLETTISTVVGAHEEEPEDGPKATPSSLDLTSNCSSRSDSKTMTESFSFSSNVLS
# Summary of the method: (§2)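 Percent inhibition of radioligand binding measured on recombinant human membranes: NK1 with [125I]-Substance P, KOP with [3H]-Diprenorphine. Incubation 1 h at room temperature, then harvest onto 0.3% PEI-soaked filters, cold Tris-HCl pH 7.4 washes and scintillation counting; non-specific binding from reference ligand wells.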
# [1] = molecular target: T5, Human neuropeptide Y (NPY-Y1) (Homo sapiens, UniProt P25929); assay: Radioligand binding, human neuropeptide Y NPY-Y1 membranes, FlashPlate, [125I]-PYY
# T5 construct: purchased Perkin Elmer Biosignal
# T5 sequence (P25929 1-384): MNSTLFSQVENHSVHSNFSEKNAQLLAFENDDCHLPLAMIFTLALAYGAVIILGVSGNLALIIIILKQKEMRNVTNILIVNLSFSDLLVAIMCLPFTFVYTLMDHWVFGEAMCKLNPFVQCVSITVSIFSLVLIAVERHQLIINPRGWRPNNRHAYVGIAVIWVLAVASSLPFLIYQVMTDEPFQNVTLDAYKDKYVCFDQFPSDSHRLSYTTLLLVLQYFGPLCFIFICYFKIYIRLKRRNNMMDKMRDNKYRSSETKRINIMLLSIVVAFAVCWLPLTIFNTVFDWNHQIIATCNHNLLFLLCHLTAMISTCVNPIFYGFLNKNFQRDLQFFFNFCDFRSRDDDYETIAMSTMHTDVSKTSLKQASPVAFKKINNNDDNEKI
# Summary of the method: as §1
# Human Melanocortin (MC4) = molecular target: T6, Human Melanocortin (MC4) (Homo sapiens, UniProt P32245); assay: Radioligand binding, human melanocortin MC4 membranes, FlashPlate, [125I]-NDP-αMSH
# T6 construct: purchased Perkin Elmer Biosignal
# T6 sequence (P32245 whole entry): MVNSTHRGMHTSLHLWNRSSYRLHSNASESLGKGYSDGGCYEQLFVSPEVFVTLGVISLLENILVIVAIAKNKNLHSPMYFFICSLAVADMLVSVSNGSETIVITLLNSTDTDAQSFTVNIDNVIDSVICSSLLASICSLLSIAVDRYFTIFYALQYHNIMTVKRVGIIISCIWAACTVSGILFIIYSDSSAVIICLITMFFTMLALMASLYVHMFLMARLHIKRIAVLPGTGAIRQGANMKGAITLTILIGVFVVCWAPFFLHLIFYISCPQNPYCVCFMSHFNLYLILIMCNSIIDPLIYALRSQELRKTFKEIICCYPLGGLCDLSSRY
# Summary of the method: as §1
# [2] = molecular target: T7, Human melanin-concentrating hormone (MCH1) (Homo sapiens, UniProt Q99705); assay: Radioligand binding, human melanin-concentrating hormone MCH1 membranes, FlashPlate, [125I]-S36057
# T7 construct: purchased Perkin Elmer Biosignal
# T7 sequence (Q99705 whole entry): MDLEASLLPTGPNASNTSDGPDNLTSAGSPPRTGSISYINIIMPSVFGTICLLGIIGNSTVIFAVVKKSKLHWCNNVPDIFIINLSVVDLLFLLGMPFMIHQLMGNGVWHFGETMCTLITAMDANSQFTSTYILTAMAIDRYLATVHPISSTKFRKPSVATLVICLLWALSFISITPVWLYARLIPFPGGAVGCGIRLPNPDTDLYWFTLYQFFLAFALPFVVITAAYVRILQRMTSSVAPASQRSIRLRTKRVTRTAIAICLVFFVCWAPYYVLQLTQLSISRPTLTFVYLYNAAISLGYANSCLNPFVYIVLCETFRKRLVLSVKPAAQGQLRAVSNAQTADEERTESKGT
# Summary of the method: as §1
# Human melanocortin (MC5) = molecular target: T8, Human melanocortin (MC5) (Homo sapiens, UniProt P33032); assay: Radioligand binding, human melanocortin MC5 membranes, FlashPlate, [125I]-NDP-αMSH
# T8 construct: purchased Perkin Elmer Biosignal
# T8 sequence (P33032 whole entry): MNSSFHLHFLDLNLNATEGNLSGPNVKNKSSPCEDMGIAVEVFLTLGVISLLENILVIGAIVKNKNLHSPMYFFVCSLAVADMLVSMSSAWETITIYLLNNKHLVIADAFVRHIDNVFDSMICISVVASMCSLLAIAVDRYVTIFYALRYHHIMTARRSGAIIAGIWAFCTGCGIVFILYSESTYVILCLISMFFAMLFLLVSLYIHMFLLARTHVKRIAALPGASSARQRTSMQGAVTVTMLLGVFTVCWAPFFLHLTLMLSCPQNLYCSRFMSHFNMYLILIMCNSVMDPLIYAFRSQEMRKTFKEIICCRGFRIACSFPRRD
# Summary of the method: as §1
# Human μ-opioid (MOP) = molecular target: T9, Human μ-opioid (MOP) (Homo sapiens, UniProt P35372); assay: Radioligand binding, human μ-opioid (MOP) membranes, FlashPlate, [3H]-Naloxone
# T9 construct: purchased Perkin Elmer Biosignal
# T9 sequence (P35372 whole entry): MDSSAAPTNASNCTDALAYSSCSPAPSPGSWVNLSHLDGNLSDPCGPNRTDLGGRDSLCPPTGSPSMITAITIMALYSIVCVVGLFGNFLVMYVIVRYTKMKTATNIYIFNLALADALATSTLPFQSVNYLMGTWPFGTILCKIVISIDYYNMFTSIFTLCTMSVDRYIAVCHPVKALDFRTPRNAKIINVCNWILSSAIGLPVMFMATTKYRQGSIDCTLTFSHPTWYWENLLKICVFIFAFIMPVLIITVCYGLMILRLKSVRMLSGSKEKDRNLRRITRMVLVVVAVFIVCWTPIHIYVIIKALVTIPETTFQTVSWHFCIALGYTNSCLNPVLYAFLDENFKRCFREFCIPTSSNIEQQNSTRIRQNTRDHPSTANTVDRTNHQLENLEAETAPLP
# Summary of the method: as §1
# Human δ-opioid (DOP) = molecular target: T10, Human δ-opioid (DOP) (Homo sapiens, UniProt P41143); assay: Radioligand binding, human δ-opioid (DOP) membranes, FlashPlate, [3H]-Bremazocine
# T10 construct: purchased Perkin Elmer Biosignal
# T10 sequence (P41143 whole entry): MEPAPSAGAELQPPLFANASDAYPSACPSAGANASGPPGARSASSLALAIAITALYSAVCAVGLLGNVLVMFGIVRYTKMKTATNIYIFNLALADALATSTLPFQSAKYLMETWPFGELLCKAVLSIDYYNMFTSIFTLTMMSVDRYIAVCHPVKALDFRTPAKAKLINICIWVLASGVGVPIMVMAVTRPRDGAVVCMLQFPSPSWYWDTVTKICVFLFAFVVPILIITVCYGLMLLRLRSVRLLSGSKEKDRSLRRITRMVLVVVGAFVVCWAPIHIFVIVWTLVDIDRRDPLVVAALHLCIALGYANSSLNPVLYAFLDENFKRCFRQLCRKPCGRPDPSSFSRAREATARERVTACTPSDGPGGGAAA
# Summary of the method: as §1
# Human κ-Opioid (KOP) = molecular target: T11, Human κ-Opioid (KOP) (Homo sapiens, UniProt P41145); assay: Radioligand binding, human κ-opioid (KOP) membranes, filtration, [3H]-Diprenorphine
# T11 construct: purchased Perkin Elmer Biosignal
# T11 sequence (P41145 whole entry): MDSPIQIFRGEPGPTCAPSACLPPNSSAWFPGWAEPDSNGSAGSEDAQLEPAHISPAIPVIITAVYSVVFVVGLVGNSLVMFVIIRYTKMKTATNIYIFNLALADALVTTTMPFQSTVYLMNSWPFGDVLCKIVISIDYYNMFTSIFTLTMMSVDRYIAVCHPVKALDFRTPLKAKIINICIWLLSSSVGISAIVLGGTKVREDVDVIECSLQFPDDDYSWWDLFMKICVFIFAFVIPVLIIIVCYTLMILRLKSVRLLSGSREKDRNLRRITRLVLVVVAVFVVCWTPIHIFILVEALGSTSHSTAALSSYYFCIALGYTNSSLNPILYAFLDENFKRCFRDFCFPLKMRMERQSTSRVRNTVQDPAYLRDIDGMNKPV
# Summary of the method: as §2
# T1 sequence (P41146 whole entry): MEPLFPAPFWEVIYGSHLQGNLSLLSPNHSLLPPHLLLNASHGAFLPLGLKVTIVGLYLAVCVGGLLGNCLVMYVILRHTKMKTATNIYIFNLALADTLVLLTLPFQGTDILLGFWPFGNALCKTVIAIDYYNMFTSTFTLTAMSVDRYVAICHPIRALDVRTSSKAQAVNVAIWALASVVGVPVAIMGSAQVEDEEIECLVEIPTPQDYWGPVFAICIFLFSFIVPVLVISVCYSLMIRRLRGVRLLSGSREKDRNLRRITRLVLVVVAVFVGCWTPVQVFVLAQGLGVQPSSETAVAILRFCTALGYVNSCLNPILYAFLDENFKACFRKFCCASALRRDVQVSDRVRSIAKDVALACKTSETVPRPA
compound,measurement,setting,value
COCC1OC(OCc2ccccc2)C(NC(=O)CNC(=N)N)C(OCc2ccccc2)C1O (stereo not shown) [compound 171],"A10 radioligand binding, percentage inhibition",Human opioid (ORL1); [125I]-Nociceptin,− (“−” indicates less than 50% inhibition at 10 μM)
same,"A3 radioligand binding, percentage inhibition",Human Melanocortin (MC3); [125I]-NDP-αMSH,− (“−” indicates less than 50% inhibition at 10 μM)
same,"A11 radioligand binding, percentage inhibition",Mouse urotensin (mUR2); [125I]-Urotensin II,− (“−” indicates less than 50% inhibition at 10 μM)
same,"A8 radioligand binding, percentage inhibition",Human neurokinin (NK1); [125I]-Substance P,+ (“+” indicates greater than 50% inhibition at 10 μM)
same,"A9 radioligand binding, percentage inhibition",[1]; [125I]-PYY,− (“−” indicates less than 50% inhibition at 10 μM)
same,"A4 radioligand binding, percentage inhibition",Human Melanocortin (MC4); [125I]-NDP-αMSH,− (“−” indicates less than 50% inhibition at 10 μM)
same,"A6 radioligand binding, percentage inhibition",[2]; [125I]-S36057,− (“−” indicates less than 50% inhibition at 10 μM)
same,"A5 radioligand binding, percentage inhibition",Human melanocortin (MC5); [125I]-NDP-αMSH,+ (“+” indicates greater than 50% inhibition at 10 μM)
same,"A7 radioligand binding, percentage inhibition",Human μ-opioid (MOP); [3H]-Naloxone,− (“−” indicates less than 50% inhibition at 10 μM)
same,"A1 radioligand binding, percentage inhibition",Human δ-opioid (DOP); [3H]-Bremazocine,− (“−” indicates less than 50% inhibition at 10 μM)
same,"A2 radioligand binding, percentage inhibition",Human κ-Opioid (KOP); [3H]-Diprenorphine,− (“−” indicates less than 50% inhibition at 10 μM)
CO[C@H]1[C@H](O)[C@@H](COCc2ccccc2)OC(OCc2ccc3ccccc3c2)[C@@H]1NC(=O)CCCNC(=N)N (stereo partly shown) [compound 77],A10 radioligand binding inhibition,Human opioid (ORL1); human ORL1 membranes,− (“−” indicates less than 50% inhibition at 10 μM)
same,A3 radioligand binding inhibition,Human Melanocortin (MC3); human melanocortin MC3 membranes,− (“−” indicates less than 50% inhibition at 10 μM)
same,A11 radioligand binding inhibition,Mouse urotensin (mUR2); mouse urotensin mUR2 membranes,− (“−” indicates less than 50% inhibition at 10 μM)
same,A8 radioligand binding inhibition,Human neurokinin (NK1); human neurokinin NK1 membranes,+ (“+” indicates greater than 50% inhibition at 10 μM)
same,A9 radioligand binding inhibition,[1]; human NPY-Y1 membranes,− (“−” indicates less than 50% inhibition at 10 μM)
same,A4 radioligand binding inhibition,Human Melanocortin (MC4); human melanocortin MC4 membranes,− (“−” indicates less than 50% inhibition at 10 μM)
same,A6 radioligand binding inhibition,[2]; human MCH1 membranes,− (“−” indicates less than 50% inhibition at 10 μM)
same,A5 radioligand binding inhibition,Human melanocortin (MC5); human melanocortin MC5 membranes,+ (“+” indicates greater than 50% inhibition at 10 μM)
same,A7 radioligand binding inhibition,Human μ-opioid (MOP); human μ-opioid (MOP) membranes,+ (“+” indicates greater than 50% inhibition at 10 μM)
same,A1 radioligand binding inhibition,Human δ-opioid (DOP); human δ-opioid (DOP) membranes,− (“−” indicates less than 50% inhibition at 10 μM)
same,A2 radioligand binding inhibition,Human κ-Opioid (KOP); human κ-opioid (KOP) membranes,− (“−” indicates less than 50% inhibition at 10 μM)
N=C(N)NCCC(=O)N[C@H]1C(OCc2ccc(Cl)cc2)O[C@H](COCc2ccc(Cl)cc2)[C@@H](O)[C@@H]1OCc1ccc(Cl)cc1 (stereo partly shown) [compound 526],"A10: inhibition of radioligand binding, human opioid (ORL1)",Human opioid (ORL1); [125I]-Nociceptin,− (“−” indicates less than 50% inhibition at 10 μM)
same,"A3: inhibition of radioligand binding, human melanocortin (MC3)","Human Melanocortin (MC3); [125I]-NDP-αMSH, 10 µM",− (“−” indicates less than 50% inhibition at 10 μM)
same,"A11: inhibition of radioligand binding, mouse urotensin (mUR2)",Mouse urotensin (mUR2); [125I]-Urotensin II,− (“−” indicates less than 50% inhibition at 10 μM)
same,"A8: inhibition of radioligand binding, human neurokinin (NK1)",Human neurokinin (NK1); [125I]-Substance P,+ (“+” indicates greater than 50% inhibition at 10 μM)
same,"A9: inhibition of radioligand binding, human neuropeptide Y (NPY-Y1)",[1]; [125I]-PYY,− (“−” indicates less than 50% inhibition at 10 μM)
same,"A4: inhibition of radioligand binding, human melanocortin (MC4)","Human Melanocortin (MC4); [125I]-NDP-αMSH, 10 µM",− (“−” indicates less than 50% inhibition at 10 μM)
same,"A6: inhibition of radioligand binding, human melanin-concentrating hormone (MCH1)",[2]; [125I]-S36057,+ (“+” indicates greater than 50% inhibition at 10 μM)
same,"A5: inhibition of radioligand binding, human melanocortin (MC5)",Human melanocortin (MC5); [125I]-NDP-αMSH,+ (“+” indicates greater than 50% inhibition at 10 μM)
same,"A7: inhibition of radioligand binding, human μ-opioid (MOP)",Human μ-opioid (MOP); [3H]-Naloxone,− (“−” indicates less than 50% inhibition at 10 μM)
same,"A1: inhibition of radioligand binding, human δ-opioid (DOP)",Human δ-opioid (DOP); [3H]-Bremazocine,− (“−” indicates less than 50% inhibition at 10 μM)
same,"A2: inhibition of radioligand binding, human κ-opioid (KOP)","Human κ-Opioid (KOP); [3H]-Diprenorphine, 10 µM",− (“−” indicates less than 50% inhibition at 10 μM)
N=C(N)NCC(=O)NC1C(OCc2ccc(Cl)cc2)OC(COCc2ccccc2)C(O)C1OCc1ccc2ccccc2c1 (stereo not shown) [compound 421],A10: inhibition of radioligand binding,"Human opioid (ORL1); [125I]-Nociceptin, human ORL1 membranes",+ (“+” indicates greater than 50% inhibition at 10 μM)
same,A3: inhibition of radioligand binding,"Human Melanocortin (MC3); [125I]-NDP-αMSH, human MC3 membranes",+ (“+” indicates greater than 50% inhibition at 10 μM)
same,A11: inhibition of radioligand binding,"Mouse urotensin (mUR2); [125I]-Urotensin II, mouse mUR2 membranes",− (“−” indicates less than 50% inhibition at 10 μM)
same,A8: inhibition of radioligand binding,"Human neurokinin (NK1); [125I]-Substance P, human NK1 membranes",+ (“+” indicates greater than 50% inhibition at 10 μM)
same,A9: inhibition of radioligand binding,"[1]; [125I]-PYY, human NPY-Y1 membranes",− (“−” indicates less than 50% inhibition at 10 μM)
same,A4: inhibition of radioligand binding,"Human Melanocortin (MC4); [125I]-NDP-αMSH, human MC4 membranes",+ (“+” indicates greater than 50% inhibition at 10 μM)
same,A6: inhibition of radioligand binding,"[2]; [125I]-S36057, human MCH1 membranes",+ (“+” indicates greater than 50% inhibition at 10 μM)
same,A5: inhibition of radioligand binding,"Human melanocortin (MC5); [125I]-NDP-αMSH, human MC5 membranes",+ (“+” indicates greater than 50% inhibition at 10 μM)
same,A7: inhibition of radioligand binding,"Human μ-opioid (MOP); [3H]-Naloxone, human MOP membranes",− (“−” indicates less than 50% inhibition at 10 μM)
same,A1: inhibition of radioligand binding,"Human δ-opioid (DOP); [3H]-Bremazocine, human DOP membranes",− (“−” indicates less than 50% inhibition at 10 μM)
same,A2: inhibition of radioligand binding,"Human κ-Opioid (KOP); [3H]-Diprenorphine, human KOP membranes",− (“−” indicates less than 50% inhibition at 10 μM)
COCC1OC(OCc2ccccc2)C(NC(=O)CN)C(OCc2ccc(-c3ccccc3)cc2)C1O (stereo not shown) [compound 182],"A10 radioligand binding, percentage inhibition",Human opioid (ORL1); [125I]-Nociceptin,− (“−” indicates less than 50% inhibition at 10 μM)
same,"A3 radioligand binding, percentage inhibition",Human Melanocortin (MC3); [125I]-NDP-αMSH,− (“−” indicates less than 50% inhibition at 10 μM)
same,"A11 radioligand binding, percentage inhibition",Mouse urotensin (mUR2); [125I]-Urotensin II,− (“−” indicates less than 50% inhibition at 10 μM)
same,"A8 radioligand binding, percentage inhibition",Human neurokinin (NK1); [125I]-Substance P,+ (“+” indicates greater than 50% inhibition at 10 μM)
same,"A9 radioligand binding, percentage inhibition",[1]; [125I]-PYY,− (“−” indicates less than 50% inhibition at 10 μM)
same,"A4 radioligand binding, percentage inhibition",Human Melanocortin (MC4); [125I]-NDP-αMSH,− (“−” indicates less than 50% inhibition at 10 μM)
same,"A6 radioligand binding, percentage inhibition",[2]; [125I]-S36057,− (“−” indicates less than 50% inhibition at 10 μM)
same,"A5 radioligand binding, percentage inhibition",Human melanocortin (MC5); [125I]-NDP-αMSH,− (“−” indicates less than 50% inhibition at 10 μM)
same,"A7 radioligand binding, percentage inhibition",Human μ-opioid (MOP); [3H]-Naloxone,− (“−” indicates less than 50% inhibition at 10 μM)
same,"A1 radioligand binding, percentage inhibition",Human δ-opioid (DOP); [3H]-Bremazocine,− (“−” indicates less than 50% inhibition at 10 μM)
same,"A2 radioligand binding, percentage inhibition",Human κ-Opioid (KOP); [3H]-Diprenorphine,− (“−” indicates less than 50% inhibition at 10 μM)
